Like-named read-outs stand apart in the source and are kept apart here.
Tests used:
Type in all cases: cell-based
[1] = molecular target: T1, human TLR9 (Homo sapiens, UniProt Q9NR96); assay: TLR9 inhibition reporter assay (HEK-Blue cells, secreted embryonic alkaline phosphatase reporter); conditions: HEK-Blue cells overexpressing human TLR9, stimulated with ODN2006 5 nM
T1 construct: host or cells: HEK-Blue cells (HEK293-derived reporter line)
T1 sequence (Q9NR96 26-1032): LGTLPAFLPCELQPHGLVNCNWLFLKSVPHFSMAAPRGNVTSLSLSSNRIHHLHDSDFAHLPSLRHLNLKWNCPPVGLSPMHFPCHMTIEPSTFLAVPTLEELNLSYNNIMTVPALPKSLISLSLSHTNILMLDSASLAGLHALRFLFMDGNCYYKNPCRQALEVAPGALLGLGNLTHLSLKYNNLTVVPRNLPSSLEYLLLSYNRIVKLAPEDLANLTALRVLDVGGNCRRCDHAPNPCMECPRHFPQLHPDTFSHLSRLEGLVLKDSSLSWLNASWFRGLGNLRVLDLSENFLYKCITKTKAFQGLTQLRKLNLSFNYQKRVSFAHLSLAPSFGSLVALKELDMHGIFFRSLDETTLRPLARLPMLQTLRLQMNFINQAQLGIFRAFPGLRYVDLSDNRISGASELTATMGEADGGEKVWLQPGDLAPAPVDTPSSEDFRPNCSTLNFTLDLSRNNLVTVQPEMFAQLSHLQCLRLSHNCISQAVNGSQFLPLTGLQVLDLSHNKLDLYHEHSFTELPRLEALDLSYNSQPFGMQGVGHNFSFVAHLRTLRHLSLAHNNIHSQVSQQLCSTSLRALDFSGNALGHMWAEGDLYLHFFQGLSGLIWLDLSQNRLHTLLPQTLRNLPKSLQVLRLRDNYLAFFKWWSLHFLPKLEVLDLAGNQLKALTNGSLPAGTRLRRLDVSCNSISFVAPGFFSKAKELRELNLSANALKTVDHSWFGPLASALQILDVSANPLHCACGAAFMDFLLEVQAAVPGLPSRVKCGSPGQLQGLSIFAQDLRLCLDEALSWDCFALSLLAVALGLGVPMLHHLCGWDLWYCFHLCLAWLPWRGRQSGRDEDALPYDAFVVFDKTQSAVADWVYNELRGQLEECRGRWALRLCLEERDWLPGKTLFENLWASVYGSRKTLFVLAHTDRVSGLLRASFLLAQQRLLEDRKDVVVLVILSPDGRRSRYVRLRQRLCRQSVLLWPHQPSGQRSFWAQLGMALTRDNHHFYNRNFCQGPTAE
How it was run: (§1)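 Read-out is SEAP colour from HEK-Blue Detection medium after 22 h at 37 °C, converted to percent inhibition between agonist-plus-DMSO and reference-inhibitor wells. Receptor-overexpressing HEK-Blue cells received compound over 0.05 nM–50 μM for 30 min before agonist: gardiquimod 7.5 μM for TLR7, R848 15.9 μM for TLR8, ODN2006 5 nM for TLR9.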

[2] = molecular target: T2, human TLR8 (Homo sapiens, UniProt Q9NR97); assay: TLR8 inhibition reporter assay (HEK-Blue cells, secreted embryonic alkaline phosphatase reporter); conditions: HEK-Blue cells overexpressing human TLR8, stimulated with R848 15.9 μM; read-out: TLR 8 IC50
T2 construct: host or cells: HEK-Blue cells (HEK293-derived reporter line)
T2 sequence (Q9NR97 27-1041): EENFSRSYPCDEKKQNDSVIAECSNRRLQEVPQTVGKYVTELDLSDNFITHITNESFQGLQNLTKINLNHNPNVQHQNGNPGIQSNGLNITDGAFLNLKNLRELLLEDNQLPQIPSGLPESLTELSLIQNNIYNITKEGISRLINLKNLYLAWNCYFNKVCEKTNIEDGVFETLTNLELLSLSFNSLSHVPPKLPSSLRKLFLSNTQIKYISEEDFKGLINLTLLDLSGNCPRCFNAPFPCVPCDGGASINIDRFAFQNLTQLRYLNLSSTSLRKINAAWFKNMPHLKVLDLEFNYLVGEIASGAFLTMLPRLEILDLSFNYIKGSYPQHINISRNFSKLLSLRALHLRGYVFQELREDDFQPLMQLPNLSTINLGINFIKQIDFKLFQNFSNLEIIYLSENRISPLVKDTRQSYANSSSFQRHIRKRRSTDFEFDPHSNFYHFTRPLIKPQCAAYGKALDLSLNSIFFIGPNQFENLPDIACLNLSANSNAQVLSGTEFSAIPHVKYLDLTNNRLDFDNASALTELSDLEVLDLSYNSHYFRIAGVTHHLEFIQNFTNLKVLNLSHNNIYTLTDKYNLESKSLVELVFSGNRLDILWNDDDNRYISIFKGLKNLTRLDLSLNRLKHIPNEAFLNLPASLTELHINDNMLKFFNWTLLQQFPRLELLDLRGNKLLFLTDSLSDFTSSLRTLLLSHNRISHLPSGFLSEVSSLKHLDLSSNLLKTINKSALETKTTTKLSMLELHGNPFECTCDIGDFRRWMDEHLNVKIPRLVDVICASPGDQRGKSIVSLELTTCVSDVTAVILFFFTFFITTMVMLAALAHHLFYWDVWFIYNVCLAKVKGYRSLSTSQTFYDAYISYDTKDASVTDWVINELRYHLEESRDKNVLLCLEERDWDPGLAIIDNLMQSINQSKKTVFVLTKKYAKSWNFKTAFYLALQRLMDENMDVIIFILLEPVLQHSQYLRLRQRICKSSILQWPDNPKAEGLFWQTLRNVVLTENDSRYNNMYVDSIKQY
Method: TLR7/8/9 Inhibition Reporter Assays
HEK-Blue™-cells (Invivogen) overexpressing human TLR7, TLR8 or TLR9 receptors were used for screening inhibitors of these receptors using an inducible SLAP (secreted embryonic alkaline phosphatase) reporter gene under the control of the […] minimal promoter fused to five NF-κB and AP-1-binding sites. Briefly, cells are seeded into Greiner 384 well plates (15000 cells per well for TLR7, 20,000 for TLR8 and 25,000 for TLR9) and then treated with test compounds in DMSO to yield a final dose response concentration range of 0.05 nM-50 μM. After a 30 minute compound pre-treatment at room temperature, the cells are then stimulated with a TLR7 ligand (gardiquimod at a final concentration of 7.5 μM), TLR8 ligand (R848 at a final concentration of 15.9 μM) or TLR9 ligand (ODN2006 at a final concentration of 5 nM) to activate NF-κB and AP-1 which induce the production of SLAP. After a 22 hour incubation at 37° C., […], SLAP levels are determined with the addition of HEK-Blue™ Detection reagent (Invivogen), a cell culture medium that allows for detection of SLAP, according to manufacturer's specifications. The percent inhibition is determined as the […] in the HEK-Blue signal present in wells treated with agonist plus DMSO alone compared to wells treated with a known inhibitor.

[3] = molecular target: T3, human TLR7 (Homo sapiens, UniProt Q9NYK1); assay: TLR7 inhibition reporter assay (HEK-Blue cells, secreted embryonic alkaline phosphatase reporter); conditions: HEK-Blue cells overexpressing human TLR7, stimulated with gardiquimod 7.5 μM; read-out: TLR 7 IC50
T3 construct: host or cells: HEK-Blue cells (HEK293-derived reporter line)
T3 sequence (Q9NYK1 27-1049): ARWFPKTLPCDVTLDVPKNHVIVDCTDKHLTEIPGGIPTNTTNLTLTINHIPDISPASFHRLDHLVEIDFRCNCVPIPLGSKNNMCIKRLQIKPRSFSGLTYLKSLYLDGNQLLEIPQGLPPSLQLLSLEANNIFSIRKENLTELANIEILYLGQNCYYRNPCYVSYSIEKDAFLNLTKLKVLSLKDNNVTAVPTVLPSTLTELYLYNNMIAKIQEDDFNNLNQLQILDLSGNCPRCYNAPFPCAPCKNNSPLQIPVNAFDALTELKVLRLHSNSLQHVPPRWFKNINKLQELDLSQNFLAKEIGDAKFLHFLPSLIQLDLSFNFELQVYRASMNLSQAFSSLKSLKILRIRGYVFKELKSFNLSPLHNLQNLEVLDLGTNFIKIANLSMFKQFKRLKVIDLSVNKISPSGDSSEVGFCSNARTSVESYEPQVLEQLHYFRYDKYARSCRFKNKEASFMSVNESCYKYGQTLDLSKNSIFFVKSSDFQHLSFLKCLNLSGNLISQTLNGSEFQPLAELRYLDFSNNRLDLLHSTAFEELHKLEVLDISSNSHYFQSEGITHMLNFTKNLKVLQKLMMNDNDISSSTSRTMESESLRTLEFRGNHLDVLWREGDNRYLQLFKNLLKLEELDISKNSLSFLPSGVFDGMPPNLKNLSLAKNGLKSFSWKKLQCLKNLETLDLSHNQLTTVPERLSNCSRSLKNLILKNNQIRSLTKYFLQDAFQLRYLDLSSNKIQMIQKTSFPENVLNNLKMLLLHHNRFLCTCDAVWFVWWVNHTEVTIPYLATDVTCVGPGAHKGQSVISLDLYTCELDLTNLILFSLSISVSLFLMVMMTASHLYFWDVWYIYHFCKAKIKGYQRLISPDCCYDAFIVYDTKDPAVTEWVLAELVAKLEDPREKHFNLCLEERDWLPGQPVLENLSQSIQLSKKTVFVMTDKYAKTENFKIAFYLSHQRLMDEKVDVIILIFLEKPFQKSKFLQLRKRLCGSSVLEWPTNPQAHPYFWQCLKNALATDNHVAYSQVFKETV
How it was run: as §1

[4] = 22 hour incubation, reporter readout

| SMILES | IC50 [1, 4] [µM] | IC50 [2] [µM] | IC50 [3] [µM] | IC50 ([1]; read-out: TLR 9 IC50) [µM] |
| --- | --- | --- | --- | --- |
| CC(C)N1C2CCC1CC(N1CCC(c3ccc4nc(-c5ccc(S(C)(=O)=O)cc5)[nH]c4c3F)CC1)C2 (single isomer, unassigned) [Example 95, 7-fluoro-6-(1-(8-isopropyl-8-azabicyclo[3.2.1]octan-3-yl)piperidin-4-yl)-2-(4-(methylsulfonyl)phenyl)-1H-benzo[d]imidazole] | 0.029 | > 50 | > 50 | – |
| CC(C)N1C2CCC1CC(N1CCC(c3cc4nc(-c5ccc(S(C)(=O)=O)cc5)n(C)c4cc3F)CC1)C2 (single isomer, unassigned) [Example 100, 6-fluoro-5-(1-(8-isopropyl-8-azabicyclo[3.2.1]octan-3-yl)piperidin-4-yl)-1-methyl-2-(4-(methylsulfonyl)phenyl)-1H-benzo[d]imidazole] | 0.062 | > 50 | 39.9 | – |
| CC(C)N1C2CCC1CC(N1CCC(c3ccc4nc(-c5ccc(S(C)(=O)=O)cc5)n(C)c4c3F)CC1)C2 (single isomer, unassigned) [Example 103, 7-fluoro-6-(1-(8-isopropyl-8-azabicyclo[3.2.1]octan-3-yl)piperidin-4-yl)-1-methyl-2-(4-(methylsulfonyl)phenyl)-1H-benzo[d]imidazole] | 0.054 | > 50 | 25.9 | – |
| CC(C)N1C2CCC1CC(N1CCC(c3cc(F)c4nc(-c5ccc(S(C)(=O)=O)cc5)n(C)c4c3)CC1)C2 (single isomer, unassigned) [Example 106, 4-fluoro-6-(1-(8-isopropyl-8-azabicyclo[3.2.1]octan-3-yl)piperidin-4-yl)-1-methyl-2-(4-(methylsulfonyl)phenyl)-1H-benzo[d]imidazole] | 0.39 | > 50 | 35.1 | 0.387 |

More lines, now with the values ahead:

| IC50 [1, 4] [µM] | IC50 [2] [µM] | IC50 [3] [µM] | IC50 ([1]; read-out: TLR 9 IC50) [µM] | SMILES |
| --- | --- | --- | --- | --- |
| 0.079 | > 50 | 47 | – | CC(C)N1C2CCC1CC(N1CCC(c3cc4c(cc3F)nc(-c3ccc(S(C)(=O)=O)cc3)n4C)CC1)C2 (single isomer, unassigned) [Example 97, 5-fluoro-6-(1-(8-isopropyl-8-azabicyclo[3.2.1]octan-3-yl)piperidin-4-yl)-1-methyl-2-(4-(methylsulfonyl)phenyl)-1H-benzo[d]imidazole] |
| 0.01 | > 50 | 23.8 | – | CC(C)N1C2CCC1CC(N1CCC(c3cc4c(cc3F)nc(-c3ccc(S(C)(=O)=O)cc3)n4C)CC1)C2 (single isomer, unassigned) [Example 98, 5-fluoro-6-(1-(8-isopropyl-8-azabicyclo[3.2.1]octan-3-yl)piperidin-4-yl)-1-methyl-2-(4-(methylsulfonyl)phenyl)-1H-benzo[d]imidazole] |
| 0.075 | > 50 | 19.5 | – | CC(C)N1C2CCC1CC(N1CCC(c3cc4nc(-c5ccc(S(C)(=O)=O)cc5)n(C)c4cc3F)CC1)C2 (single isomer, unassigned) [Example 101, 6-fluoro-5-(1-(8-isopropyl-8-azabicyclo[3.2.1]octan-3-yl)piperidin-4-yl)-1-methyl-2-(4-(methylsulfonyl)phenyl)-1H-benzo[d]imidazole] |
| 0.14 | > 50 | 39.2 | – | CC(C)N1C2CCC1CC(N1CCC(c3ccc4nc(-c5ccc(S(C)(=O)=O)cc5)n(C)c4c3F)CC1)C2 (single isomer, unassigned) [Example 104, 7-fluoro-6-(1-(8-isopropyl-8-azabicyclo[3.2.1]octan-3-yl)piperidin-4-yl)-1-methyl-2-(4-(methylsulfonyl)phenyl)-1H-benzo[d]imidazole] |

Source: patent US12492188B2, “1H-benzo[D]imidazole derivatives as TLR9 inhibitors for the treatment of fibrosis” (BRISTOL-MYERS SQUIBB COMPANY, priority 2020, dated 2025)
